Assay results reported in ChEMBL document CHEMBL3430912, “GSK Tres Cantos Anti-Kinetoplastid Screening (TCAKS) Data”.

Experiments:
Trypanosoma cruzi [1] = test: GSK_TCAKS: pIC50 Trypanosoma cruzi viability assay using beta-GAL activity. This assay was run at single shot at 5uM compound concentration per well. The biological reagents consisted of NIH-3T3 host cells and trypomastigotes parasitic cells; both cell types were set to a 3.3 * 10^5 cells/mL dilution in assay DMEM by means of a CASY cell counter device using a 60um capillary. 6 uL of the mixture were dispensed per well (about 1 * 10^3 host-cells and 1 * 10^3 parasites) with a Multidrop Combi dispenser. […] In all wells, the percentage of DMSO never exceeded 0.5%. Plates incubated for four days at 37C, 5% CO2. The substrate used for the assay fluorescence intensity (FLINT) readout was resorufin-beta-D-galactopiranoside (Sigma-Aldrich) at 5uM per well. It was diluted in PBS supplemented with the soft detergent Igepal (Fluka).; format: functional, organism-based, Mus musculus; conditions: Tulahuen, NIH3T3
Trypanosoma cruzi [2] = test: (§1) GSK_TCAKS: pIC50 Trypanosoma cruzi Imaging: Infected Cells. […] Cells were then washed once with PBS before infection. T. cruzi trypomastigotes, collected at days 5 to 8 after infection from LLC-MK2 parasite infected cultures, were allowed to swim out for 4h at 37C from a centrifuged pellet (2,500 rpm/10 min/room temperature). Trypomastigotes were then collected and counted in a CASY Cell Counter. Trypomastigotes, in supplemented DMEM, were added to H9c2 cultures in a multiplicity of infection of 1 and incubated for 18 h. Cells were washed once with PBS before incubation of the infected H9c2 monolayer with trypsin (Life-Technologies) to detach cells from the flask. Cells were counted in a CASY Cell Counter using a 150 um capillary and their density set at 5 * 10^4 cells per mL in supplemented assay DMEM. Infected H9c2 were dispensed into 384-well poly-lysine coated assay plates at 50uL per well using a Multidrop Combi dispenser. After seeding them, the plates were incubated at 37C, 5% CO2 for 72h. Cultures were then fixed and stained by addition of 50 uL of a solution containing 8% formaldehyde and 4 uM DRAQ5 DNA dye (BioStatus, UK) per well. […] Five images were collected per well for reliable statistical analysis. Automated image analysis was performed with a script developed on Acapella High Content Imaging and Analysis Software (PerkinElmer). Output: percentage of infected cells per well as a second infection marker.; format: functional, organism-based, Rattus norvegicus; conditions: H9c2, 4 h
Trypanosoma cruzi [3] = test: GSK_TCAKS: pIC50 Trypanosoma cruzi Imaging: Amastigotes/Cell. […] Cells were then washed once with PBS before infection. T. cruzi trypomastigotes, collected at days 5 to 8 after infection from LLC-MK2 parasite infected cultures, were allowed to swim out for 4h at 37C from a centrifuged pellet (2,500 rpm/10 min/room temperature). Trypomastigotes were then collected and counted in a CASY Cell Counter. Trypomastigotes, in supplemented DMEM, were added to H9c2 cultures in a multiplicity of infection of 1 and incubated for 18 h. Cells were washed once with PBS before incubation of the infected H9c2 monolayer with trypsin (Life-Technologies) to detach cells from the flask. Cells were counted in a CASY Cell Counter using a 150 um capillary and their density set at 5 * 10^4 cells per mL in supplemented assay DMEM. Infected H9c2 were dispensed into 384-well poly-lysine coated assay plates at 50uL per well using a Multidrop Combi dispenser. After seeding them, the plates were incubated at 37C, 5% CO2 for 72h. Cultures were then fixed and stained by addition of 50 uL of a solution containing 8% formaldehyde and 4 uM DRAQ5 DNA dye (BioStatus, UK) per well. […] Five images were collected per well for reliable statistical analysis. Automated image analysis was performed with a script developed on Acapella High Content Imaging and Analysis Software (PerkinElmer). Output: number of amastigotes per cell as infection level measurement.; format: functional, organism-based, Rattus norvegicus; conditions: H9c2, 4 h
Trypanosoma cruzi [4] = test: as §1, with “H2C9” for “Trypanosoma cruzi”, “H9c2 Host Cardiomyocytes.” for “Infected Cells.”, “Number” for “percentage”, “H9c2 Host Cardiomyocytes nuclei to determine drug-related cytotoxicity.” for “infected cells per well as a second infection marker.”; format: functional, organism-based, Rattus norvegicus; conditions: H9c2, 4 h
Leishmania donovani [5] = test: GSK_TCAKS: pIC50 Leishmania donovani viability assay using fluorescence intensity. Assay plates (1536-well) were prepared by adding 30nL per well of compound. For single shot assay, the final compound concentration was 5uM. […] Briefly, eGFP LdBOB axenic amastigotes were harvested, fixed and counted in a CASY cell counter (Roche-Applied Science). A final concentration of 1.5 * 10^5 cells per well were prepared in amastigote media containing 500 U/mL penicillin/streptomycin (Invitrogen) and 6uL was dispensed to each experimental well using a Multidrop Combi dispenser (Thermo Scientific). 6uL of assay media was dispensed to control columns used as reference for 100% compound response. Following incubation for 72 h at 37C, 5% CO2, 2 uL of resazurin was added to each well at a final concentration of 0.5 mM in phosphate buffered saline (PBS) with IGEPAL (Sigma-Aldrich), 0.05% (v/v).; format: functional, organism-based
Leishmania donovani [6] = test: GSK_TCAKS: pIC50 Leishmania donovani Imaging: Infected Macrophages. Assay plates (384-well) were prepared by adding 250nL of compound to each well. For single shot assay, the final compound concentration was 5 uM. […] Automated image analysis was performed with a script developed on Acapella High Content Imaging and Analysis Software (PerkinElmer). Output: Percent of infected macrophage cells were reported for each well.; format: functional, organism-based, Homo sapiens; conditions: THP-1
Leishmania donovani [7] = test: GSK_TCAKS: pIC50 Leishmania donovani Imaging: Amastigotes/Macrophages. Assay plates (384-well) were prepared by adding 250nL of compound to each well. For single shot assay, the final compound concentration was 5 uM. […] Automated image analysis was performed with a script developed on Acapella High Content Imaging and Analysis Software (PerkinElmer). Output: Average number of amastigotes per macrophage cell were reported for each well.; format: functional, organism-based, Homo sapiens; conditions: THP-1
Leishmania donovani [8] = test: GSK_TCAKS: pIC50 Leishmania donovani Imaging: THP-1 Host Macrophages. Assay plates (384-well) were prepared by adding 250nL of compound to each well. For single shot assay, the final compound concentration was 5 uM. […] Automated image analysis was performed with a script developed on Acapella High Content Imaging and Analysis Software (PerkinElmer). Output: THP-1 cell count were reported for each well.; format: functional, organism-based, Homo sapiens
[9] = tested on: Trypanosoma brucei brucei; test: GSK_TCAKS: pIC50 Trypanosoma brucei viability assay using fluorescence intensity. Assay plates (1536-well) were prepared by dispensing 25nL of compound solution per well using an Echo acoustic dispenser (Labcyte).; format: functional, organism-based; conditions: Lister 427, 2 h
[10] = tested on: Trypanosoma brucei brucei; test: GSK_TCAKS: pIC50 Trypanosoma brucei viability assay using luminiscence. Assay plates (1536-well) were prepared. T. brucei cultures were harvested and counted in a CASY cell counter. A parasite suspension was prepared at a final concentration of 5 * 10^4 cells/mL in complete HMI9 medium and 6uL was dispensed to all wells containing compounds using a Multidrop Combi dispenser. 6uL of HMI9 media with 0.4% DMSO were dispensed to control columns. Plates were incubated for 24 h at 37C, 5% CO2 then tempered for 10 min at room temperature. ATP content was quantified by adding 4 uL of CellTiter-Glo Reagent (Promega) according to the manufacturer's instructions. Luminescence was measured using a ViewLux.; format: functional, organism-based; conditions: Lister 427, CASY
[11] = GSK_TCAKS: pIC50 HepG2 human cell line viability assay using luminiscence. […] Seeding density was checked to ensure that new mono-layers were not more than 50% confluent at the time of harvesting. Cell suspension was added to 500 mL of the same medium at a final density of 1.2 * 10^5 cells/mL. This cell suspension was dispensed (25 uL, 3000 cells per well) into 384-well clear-bottom plates using a Multidrop Combi dispenser. Prior to addition of the cell suspension, the screening compounds (250 nL) were pre-dispensed into the plates with an Echo liquid handler. Plates were incubated for 48 h at 37C, 5% CO2. After incubation, plates equilibrated at room temperature for 30 min before proceeding to develop the luminescent signal. The signal developer, CellTiter-Glo Reagent, was allowed to equilibrate at room temperature for 30 min and added to the plates (25uL per well) using a Multidrop Combi dispenser. Plates were left for 10 min at room temperature for stabilization and then read using a ViewLux.; format: toxicity, cell-based
NIH3T3 = test: GSK_TCAKS: pIC50 NIH 3T3 cell line viability assay using luminiscence. Tissue culture surface treated assay plates (1536-well) were used. […] The 100% cells survival control was determined exposing the host-cells to a 0.5% DMSO concentration, whereas the 100% toxicity control was achieved by seeding the cells in presence of Amphotericin B at 50uM. Plates were incubated for four days at 37C, 5% CO2. The assay readout was developed by addition of 5uL of CellTiter-Glo Reagent following the manufacturer's instructions. Luminiscence was measured using a ViewLux.; format: functional, cell-based; conditions: Mus musculus, NIH3T3, 96 h
[12] = target: Sterol 14-alpha demethylase (Trypanosoma cruzi (strain CL Brener), UniProt Q7Z1V1); test: GSK_TCAKS: pIC50 CYP51 from Trypanosoma cruzi.; format: functional
Chain of Sterol 14-alpha demethylase (Q7Z1V1 whole entry): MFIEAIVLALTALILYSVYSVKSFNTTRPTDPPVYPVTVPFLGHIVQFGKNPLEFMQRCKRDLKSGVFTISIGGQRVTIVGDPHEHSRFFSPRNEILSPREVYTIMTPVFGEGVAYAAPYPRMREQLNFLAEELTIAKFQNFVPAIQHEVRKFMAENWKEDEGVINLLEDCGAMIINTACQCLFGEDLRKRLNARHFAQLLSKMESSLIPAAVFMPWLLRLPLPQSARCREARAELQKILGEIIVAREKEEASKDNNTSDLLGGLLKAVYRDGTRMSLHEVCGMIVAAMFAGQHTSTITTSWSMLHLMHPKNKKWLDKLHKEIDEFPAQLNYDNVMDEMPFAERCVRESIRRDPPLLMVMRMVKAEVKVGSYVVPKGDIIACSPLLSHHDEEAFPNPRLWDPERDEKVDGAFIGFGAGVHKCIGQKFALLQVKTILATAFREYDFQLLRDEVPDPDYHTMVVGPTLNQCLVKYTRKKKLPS

SMILES | IC50 (Trypanosoma cruzi [1]) [µM] | IC50 (Trypanosoma cruzi [2]) [µM] | IC50 (Trypanosoma cruzi [3]) [µM] | IC50 (Trypanosoma cruzi [4]) [µM] | IC50 (Leishmania donovani [5]) [µM] | IC50 (Leishmania donovani [6]) [µM] | IC50 (Leishmania donovani [7]) [µM] | IC50 (Leishmania donovani [8]) [µM] | IC50 [9] [µM] | IC50 [10] [µM] | IC50 at 48 h [11] [µM] | IC50 (NIH3T3) [µM] | IC50 [12] [µM]
C=CCOCC1Cn2nc([N+](=O)[O-])nc2O1 (stereo not given) | 0.501 | 1.26 | 0.631 | > 50.1 | > 50.1 | > 50.1 | > 50.1 | > 50.1 | > 39.8 | > 39.8 | > 100 | > 50.1 | > 100
Cc1ccc(NC(=O)c2ccc(Cl)c(NC(=O)c3ccc([N+](=O)[O-])cc3)c2)cc1 | 0.631 | 0.501 | 0.2 | > 50.1 | > 50.1 | > 50.1 | > 50.1 | > 50.1 | 7.94 | 15.8 | > 100 | 20 | > 100
C=CCn1nc([N+](=O)[O-])nc1Oc1ccc(Cl)cc1Cl | 0.251 | 0.251 | 0.126 | > 50.1 | > 50.1 | > 50.1 | 39.8 | 39.8 | 20 | > 39.8 | > 100 | 50.1 | 20
Cc1c(C#N)c([N+](=O)[O-])nn1Cc1cccc(Cl)c1Cl | 0.2 | 0.1 | 0.0398 | > 50.1 | > 50.1 | > 50.1 | 15.8 | 15.8 | 15.8 | 25.1 | 79.4 | 39.8 | > 100
Cc1c(CNC(=O)c2ccc(Cn3cc(Cl)c([N+](=O)[O-])n3)cc2)cnn1C | 1 | 1.58 | 0.794 | > 50.1 | > 50.1 | > 50.1 | > 50.1 | > 50.1 | 5.01 | 10 | > 100 | > 50.1 | > 100
Cc1c([N+](=O)[O-])c(C(=O)Nc2sc3c(c2C#N)CCC(C)C3)nn1C (stereo not given) | 2.51 | 2.51 | 1.58 | > 50.1 | 25.1 | 31.6 | 15.8 | > 50.1 | > 39.8 | > 39.8 | > 100 | 12.6 | > 100
O=C(Nc1ccc(Br)cn1)c1ccc(Cn2cnc([N+](=O)[O-])n2)cc1 | 0.158 | 0.126 | 0.0794 | > 50.1 | > 50.1 | > 50.1 | > 50.1 | > 50.1 | 1.58 | 3.16 | > 100 | > 50.1 | > 100
CC1=NN(C(=O)CCn2cnc([N+](=O)[O-])n2)C(O)(C(F)(F)F)C1 (stereo not given) | 2 | 6.31 | 1.26 | > 50.1 | > 50.1 | > 50.1 | > 50.1 | > 50.1 | > 39.8 | > 39.8 | > 100 | > 50.1 | > 100
O=C(c1cc2cc(Cl)ccc2[nH]1)N1CCCCC1c1cccnc1 (stereo not given) | 0.251 | 0.126 | 0.126 | 31.6 | 50.1 | 31.6 | 10 | 15.8 | 25.1 | 15.8 | 39.8 | 39.8 | 0.0631
O=S(=O)(c1ccccc1C(F)(F)F)N1CCN(Cc2ccc(-n3ccnc3)cc2)CC1 | 0.251 | 0.251 | 0.2 | > 50.1 | 6.31 | > 50.1 | 25.1 | 15.8 | > 39.8 | > 39.8 | > 100 | > 50.1 | 0.1
